Data as given in patent US9340590B2 (priority 2011, dated 2016).
Like-named read-outs stand apart in the source and are kept apart here. Positions of bridges follow the written chain, without caps; N, C: chain ends. Non-standard residues stand in square brackets, D forms with d. Residues, ends and D or L forms follow the SMILES beside them. Lys(Me2) = CN(C)CCCC[C@H](N)C(=O)O

Assays:
Test in all cases: cell-based
hNav1.3 [1] = biological target: T1, hNav1.3 (Homo sapiens, UniProt Q9NY46); format: cell-based; conditions: Nav1.3 Use IC50
hNav1.5 [2] = biological target: T2, hNav1.5 (Homo sapiens, UniProt Q14524)
hNav1.5 [3] = biological target: T2, hNav1.5; remark: listed apart in the source
hNav1.7 [4] = biological target: T3, hNav1.7 (Homo sapiens, UniProt Q15858); format: cell-based
hNav1.7 [5] = biological target: T3, hNav1.7; conditions: Nav1.7 Use IC50
hNav1.3 [6] = biological target: T1, hNav1.3; conditions: IonWorks Quattro, read-out: IWQ Use Nav1.3
[7] = clamped to −110 mV, depolarized to −10 mV, 5 min after compound, n=2
[8] = IonWorks Quattro, clamped to −110 mV, depolarized to −10 mV, 5 min after compound, n=2, read-out: IWQ Use Nav1.5
[9] = IonWorks Quattro, clamped to −110 mV, depolarized to −10 mV, 5 min after compound, n=2, read-out: IWQ Use Nav1.7

T2 sequence (Q14524 whole entry, looked up): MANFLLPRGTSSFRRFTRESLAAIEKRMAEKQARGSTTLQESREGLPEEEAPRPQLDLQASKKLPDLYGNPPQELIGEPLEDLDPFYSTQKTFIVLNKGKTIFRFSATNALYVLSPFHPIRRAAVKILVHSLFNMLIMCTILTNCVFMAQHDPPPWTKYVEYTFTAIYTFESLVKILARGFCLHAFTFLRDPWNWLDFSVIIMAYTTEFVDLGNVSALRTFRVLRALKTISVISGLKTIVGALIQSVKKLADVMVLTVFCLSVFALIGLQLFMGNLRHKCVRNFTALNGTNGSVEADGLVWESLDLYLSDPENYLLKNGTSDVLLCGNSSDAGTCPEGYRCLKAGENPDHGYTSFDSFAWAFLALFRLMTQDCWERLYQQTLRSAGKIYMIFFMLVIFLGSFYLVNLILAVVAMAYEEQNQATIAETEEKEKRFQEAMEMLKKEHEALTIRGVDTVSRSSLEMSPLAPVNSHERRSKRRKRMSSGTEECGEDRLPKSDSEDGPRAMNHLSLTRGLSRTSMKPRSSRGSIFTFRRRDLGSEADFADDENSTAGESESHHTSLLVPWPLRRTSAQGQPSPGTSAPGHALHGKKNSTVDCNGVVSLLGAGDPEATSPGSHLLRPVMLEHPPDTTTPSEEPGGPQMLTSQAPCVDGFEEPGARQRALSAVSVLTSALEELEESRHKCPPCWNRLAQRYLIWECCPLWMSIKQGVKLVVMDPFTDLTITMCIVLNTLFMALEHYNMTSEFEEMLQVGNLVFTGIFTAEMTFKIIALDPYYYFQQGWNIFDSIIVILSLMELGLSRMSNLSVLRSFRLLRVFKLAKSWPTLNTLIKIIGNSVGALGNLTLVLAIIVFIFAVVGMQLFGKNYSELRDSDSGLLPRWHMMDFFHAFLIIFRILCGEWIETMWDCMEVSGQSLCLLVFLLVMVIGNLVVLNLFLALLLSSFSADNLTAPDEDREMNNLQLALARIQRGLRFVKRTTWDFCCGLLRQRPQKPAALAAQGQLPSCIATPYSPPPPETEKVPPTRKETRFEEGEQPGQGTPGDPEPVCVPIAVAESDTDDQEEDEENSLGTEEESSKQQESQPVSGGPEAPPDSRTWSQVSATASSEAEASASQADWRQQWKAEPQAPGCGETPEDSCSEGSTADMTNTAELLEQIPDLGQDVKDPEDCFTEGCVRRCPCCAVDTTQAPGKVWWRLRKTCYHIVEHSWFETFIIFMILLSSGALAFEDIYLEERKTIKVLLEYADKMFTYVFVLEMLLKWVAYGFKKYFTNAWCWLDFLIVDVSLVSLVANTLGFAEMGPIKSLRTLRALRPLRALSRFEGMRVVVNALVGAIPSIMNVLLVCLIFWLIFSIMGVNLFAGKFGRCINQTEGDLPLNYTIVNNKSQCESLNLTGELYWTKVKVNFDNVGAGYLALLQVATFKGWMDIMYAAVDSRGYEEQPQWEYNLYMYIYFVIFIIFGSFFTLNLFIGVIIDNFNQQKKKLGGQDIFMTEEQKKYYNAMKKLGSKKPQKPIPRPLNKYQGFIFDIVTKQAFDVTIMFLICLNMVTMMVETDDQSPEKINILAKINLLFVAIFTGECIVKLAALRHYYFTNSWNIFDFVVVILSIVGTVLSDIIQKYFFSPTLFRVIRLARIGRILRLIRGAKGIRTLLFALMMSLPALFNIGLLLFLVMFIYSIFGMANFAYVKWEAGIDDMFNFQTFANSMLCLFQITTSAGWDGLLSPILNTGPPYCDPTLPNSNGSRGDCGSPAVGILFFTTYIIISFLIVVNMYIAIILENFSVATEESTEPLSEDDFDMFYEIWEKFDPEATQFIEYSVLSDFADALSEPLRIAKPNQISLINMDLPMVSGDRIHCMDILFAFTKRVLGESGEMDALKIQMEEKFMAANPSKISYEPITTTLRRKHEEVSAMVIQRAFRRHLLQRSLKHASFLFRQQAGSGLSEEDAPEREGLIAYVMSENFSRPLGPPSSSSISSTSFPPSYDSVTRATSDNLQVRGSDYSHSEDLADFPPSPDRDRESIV
T3 sequence (Q15858 whole entry, looked up): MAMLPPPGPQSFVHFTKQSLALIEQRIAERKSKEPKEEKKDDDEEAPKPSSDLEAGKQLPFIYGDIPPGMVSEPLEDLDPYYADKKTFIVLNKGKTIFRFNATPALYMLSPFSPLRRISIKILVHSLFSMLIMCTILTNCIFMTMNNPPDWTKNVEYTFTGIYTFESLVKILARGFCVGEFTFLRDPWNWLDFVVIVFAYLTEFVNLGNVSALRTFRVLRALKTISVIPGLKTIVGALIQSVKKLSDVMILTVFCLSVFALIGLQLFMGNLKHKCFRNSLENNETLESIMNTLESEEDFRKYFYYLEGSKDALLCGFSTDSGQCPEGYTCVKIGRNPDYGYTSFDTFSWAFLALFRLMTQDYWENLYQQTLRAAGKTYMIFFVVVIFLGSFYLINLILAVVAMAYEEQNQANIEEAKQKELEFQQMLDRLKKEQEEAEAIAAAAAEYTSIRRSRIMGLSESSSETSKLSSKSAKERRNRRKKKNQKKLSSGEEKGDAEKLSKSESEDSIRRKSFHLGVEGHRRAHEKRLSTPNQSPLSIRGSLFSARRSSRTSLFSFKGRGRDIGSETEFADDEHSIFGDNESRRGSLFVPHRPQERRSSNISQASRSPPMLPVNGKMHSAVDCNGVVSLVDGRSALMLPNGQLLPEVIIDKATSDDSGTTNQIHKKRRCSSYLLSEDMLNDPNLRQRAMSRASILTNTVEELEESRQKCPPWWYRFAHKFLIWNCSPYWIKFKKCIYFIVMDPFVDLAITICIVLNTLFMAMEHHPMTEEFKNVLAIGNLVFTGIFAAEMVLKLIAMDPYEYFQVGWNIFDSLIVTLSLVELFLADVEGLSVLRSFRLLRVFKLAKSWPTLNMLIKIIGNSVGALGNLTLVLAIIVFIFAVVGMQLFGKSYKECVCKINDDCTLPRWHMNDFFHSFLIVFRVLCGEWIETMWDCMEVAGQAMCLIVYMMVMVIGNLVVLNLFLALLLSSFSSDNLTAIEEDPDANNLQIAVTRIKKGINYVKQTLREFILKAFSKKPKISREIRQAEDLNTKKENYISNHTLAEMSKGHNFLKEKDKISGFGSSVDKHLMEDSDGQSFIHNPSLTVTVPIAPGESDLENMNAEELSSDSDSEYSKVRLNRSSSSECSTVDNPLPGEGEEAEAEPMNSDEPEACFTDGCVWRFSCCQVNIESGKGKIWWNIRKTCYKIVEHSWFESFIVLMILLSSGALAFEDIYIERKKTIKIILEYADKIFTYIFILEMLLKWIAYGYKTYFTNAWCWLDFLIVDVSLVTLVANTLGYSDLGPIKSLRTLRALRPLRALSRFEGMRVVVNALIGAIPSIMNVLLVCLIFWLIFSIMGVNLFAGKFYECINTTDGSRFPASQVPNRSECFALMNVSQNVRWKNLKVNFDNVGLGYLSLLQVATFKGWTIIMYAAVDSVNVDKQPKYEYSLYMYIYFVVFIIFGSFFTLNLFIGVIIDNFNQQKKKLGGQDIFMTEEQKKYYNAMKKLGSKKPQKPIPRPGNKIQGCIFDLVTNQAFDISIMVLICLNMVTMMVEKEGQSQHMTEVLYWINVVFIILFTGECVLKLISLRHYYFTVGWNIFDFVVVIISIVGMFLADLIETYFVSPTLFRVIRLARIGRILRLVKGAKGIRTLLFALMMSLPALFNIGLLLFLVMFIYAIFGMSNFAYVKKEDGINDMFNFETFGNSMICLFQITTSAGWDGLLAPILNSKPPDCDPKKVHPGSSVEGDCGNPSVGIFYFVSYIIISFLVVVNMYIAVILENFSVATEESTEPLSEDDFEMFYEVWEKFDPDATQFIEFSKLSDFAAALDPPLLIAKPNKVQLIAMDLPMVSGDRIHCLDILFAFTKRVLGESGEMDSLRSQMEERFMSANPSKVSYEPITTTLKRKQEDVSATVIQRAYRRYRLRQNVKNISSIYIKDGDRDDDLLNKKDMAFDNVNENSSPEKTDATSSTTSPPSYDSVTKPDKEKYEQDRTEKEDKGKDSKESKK

| Compound | IC50 (hNav1.3 [1]) [nM] | IC50 (hNav1.5 [2]) [nM] | IC50 (hNav1.5 [3]; IWQ Use Nav1.5) [nM] | IC50 (hNav1.7 [4]) [nM] | IC50 (hNav1.7 [5]) [nM] | IC50 (hNav1.3 [6]; [7]) [nM] | IC50 (hNav1.5 [3]; IonWorks Quattro, use-dependent block, hNav1.5, read-out: IWQ Use Nav1.5) [nM] | IC50 (hNav1.7 [4]; IonWorks Quattro, use-dependent block, hNav1.7, read-out: IWQ Use Nav1.7) [nM] | IC50 (hNav1.3 [6]; use-dependent block, hNav1.3) [nM] | IC50 (hNav1.5 [3]; [8]) [nM] | IC50 (hNav1.7 [4]; read-out: IWQ Use Nav1.7) [nM] | IC50 (hNav1.7 [4]; [9]) [nM] |
| --- | --- | --- | --- | --- | --- | --- | --- | --- | --- | --- | --- | --- |
| CC[C@H](C)[C@@H]1NC(=O)[C@@H]2CSSC[C@@H]3NC(=O)[C@H](C(C)C)NC(=O)[C@H](CC(C)C)NC(=O)[C@H](CC(N)=O)NC(=O)[C@@H]4CCCN4C(=O)[C@H](CCCNC(=N)N)NC(=O)[C@H](CSSC[C@H](NC(=O)[C@@H](N)CC(=O)O)C(=O)N[C@@H](CC(C)C)C(=O)NCC(=O)N[C@@H](C)C(=O)N[C@@H](Cc4ccccc4)C(=O)N[C@@H](CCCNC(=N)N)C(=O)N[C@@H](CCCCN)C(=O)N2)NC(=O)[C@H](CSSC[C@@H](C(=O)N[C@@H](CCCCN)C(=O)N[C@@H](Cc2ccc(O)cc2)C(=O)N[C@H](C(=O)N[C@@H](Cc2ccccc2)C(N)=O)C(C)C)NC(=O)[C@H](Cc2c[nH]c4ccccc24)NC(=O)[C@H](CCCCN)NC(=O)[C@H](Cc2cnc[nH]2)NC(=O)[C@H](CC(C)C)NC(=O)[C@H](CCCNC(=N)N)NC(=O)[C@H](CO)NC3=O)NC(=O)[C@H](CCCCN)NC(=O)[C@H](CC(=O)O)NC(=O)[C@H](CC(N)=O)NC(=O)[C@H](CC(=O)O)NC(=O)[C@@H]2CCCN2C1=O [[Ala5;Phe6;Leu26]GpTx-1(1-34)] (H-DCLGAFRKCIPDNDKCCRPNLVCSRLHKWCKYVF-NH2; disulfide 2-17, 9-23, 16-30) | 11 | – | – | – | – | – | – | – | – | – | – | – |
| CC[C@H](C)[C@@H]1NC(=O)[C@@H]2CSSC[C@@H]3NC(=O)[C@H](C(C)C)NC(=O)[C@H](CC(C)C)NC(=O)[C@H](CC(N)=O)NC(=O)[C@@H]4CCCN4C(=O)[C@H](CCCNC(=N)N)NC(=O)[C@H](CSSC[C@H](NC(=O)[C@@H](N)CC(=O)O)C(=O)N[C@@H](CC(C)C)C(=O)NCC(=O)N[C@@H](Cc4ccccc4)C(=O)N[C@@H](Cc4ccc(O)cc4)C(=O)N[C@@H](CCCNC(=N)N)C(=O)N[C@@H](CCCCN)C(=O)N2)NC(=O)[C@H](CSSC[C@@H](C(=O)N[C@@H](CCCCN)C(=O)N[C@@H](Cc2ccc(O)cc2)C(=O)N[C@H](C(=O)N[C@@H](Cc2ccccc2)C(N)=O)C(C)C)NC(=O)[C@H](Cc2c[nH]c4ccccc24)NC(=O)[C@H](CCCCN)NC(=O)[C@H](Cc2cnc[nH]2)NC(=O)[C@H]([C@@H](C)O)NC(=O)[C@H](CCCNC(=N)N)NC(=O)[C@H](CO)NC3=O)NC(=O)[C@H](CCCCN)NC(=O)[C@H](CC(=O)O)NC(=O)[C@H](CC(N)=O)NC(=O)[C@H](CC(=O)O)NC(=O)[C@@H]2CCCN2C1=O [SEQ ID NO: 286] (H-DCLGFYRKCIPDNDKCCRPNLVCSRTHKWCKYVF-NH2; disulfide 2-17, 9-23, 16-30) | – | 10000 | 6380 | 970 | 69 | 520 | – | – | – | – | – | – |
| CC[C@H](C)[C@@H]1NC(=O)[C@@H]2CSSC[C@@H]3NC(=O)[C@H](C(C)C)NC(=O)[C@H](CC(C)C)NC(=O)[C@H](CC(N)=O)NC(=O)[C@@H]4CCCN4C(=O)[C@H](CCCNC(=N)N)NC(=O)[C@H](CSSC[C@H](NC(=O)[C@@H](N)CC(=O)O)C(=O)N[C@@H](CC(C)C)C(=O)NCC(=O)N[C@@H](Cc4ccccc4)C(=O)N[C@@H](CCSC)C(=O)N[C@@H](CCCCN(C)C)C(=O)N[C@@H](CCCCN)C(=O)N2)NC(=O)[C@H](CSSC[C@@H](C(=O)N[C@@H](CCCCN)C(=O)N[C@@H](Cc2ccc(O)cc2)C(=O)N[C@H](C(=O)N[C@@H](Cc2ccccc2)C(N)=O)C(C)C)NC(=O)[C@H](Cc2c[nH]c4ccccc24)NC(=O)[C@H](CCCCN)NC(=O)[C@H](Cc2c[nH]cn2)NC(=O)[C@H]([C@@H](C)O)NC(=O)[C@H](CCCNC(=N)N)NC(=O)[C@H](CO)NC3=O)NC(=O)[C@H](CCCCN)NC(=O)[C@H](CC(=O)O)NC(=O)[C@H](CC(N)=O)NC(=O)[C@H](CC(=O)O)NC(=O)[C@@H]2CCCN2C1=O [[K(Me2)7]GpTx-1(1-34)] (H-DCLGFM[Lys(Me2)]KCIPDNDKCCRPNLVCSRTHKWCKYVF-NH2; disulfide 2-17, 9-23, 16-30) | – | > 10000 | – | – | 20 | – | 13300 | 820 | 270 | – | – | – |
| CC[C@H](C)[C@@H]1NC(=O)[C@@H]2CSSC[C@@H]3NC(=O)[C@H](C(C)C)NC(=O)[C@H](CC(C)C)NC(=O)[C@H](CC(N)=O)NC(=O)[C@@H]4CCCN4C(=O)[C@H](CCCNC(=N)N)NC(=O)[C@H](CSSC[C@H](NC(=O)[C@H](CC(=O)O)NC(=O)[C@H](C)N)C(=O)N[C@@H](CC(C)C)C(=O)NCC(=O)N[C@@H](Cc4ccccc4)C(=O)N[C@@H](CCSC)C(=O)N[C@@H](CCCNC(=N)N)C(=O)N[C@@H](CCCCN)C(=O)N2)NC(=O)[C@H](CSSC[C@@H](C(=O)N[C@@H](CCCCN)C(=O)N[C@@H](Cc2ccc(O)cc2)C(=O)N[C@H](C(=O)N[C@@H](Cc2ccccc2)C(N)=O)C(C)C)NC(=O)[C@H](Cc2c[nH]c4ccccc24)NC(=O)[C@H](CCCCN)NC(=O)[C@H](Cc2c[nH]cn2)NC(=O)[C@H]([C@@H](C)O)NC(=O)[C@H](CCCNC(=N)N)NC(=O)[C@H](CO)NC3=O)NC(=O)[C@H](CCCCN)NC(=O)[C@H](CC(=O)O)NC(=O)[C@H](CC(N)=O)NC(=O)[C@H](CC(=O)O)NC(=O)[C@@H]2CCCN2C1=O [SEQ ID NO: 100] | – | 10000 | – | – | 12 | 320 | – | – | – | 19600 | 370 | – |
| CC[C@H](C)[C@@H]1NC(=O)[C@@H]2CSSC[C@@H]3NC(=O)[C@H](C(C)C)NC(=O)[C@H](CC(C)C)NC(=O)[C@H](CC(N)=O)NC(=O)[C@@H]4CCCN4C(=O)[C@H](CCCNC(=N)N)NC(=O)[C@H](CSSC[C@H](NC(=O)[C@@H](N)CC(=O)O)C(=O)N[C@@H](CC(C)C)C(=O)NCC(=O)N[C@@H](Cc4ccccc4)C(=O)N4CCC[C@H]4C(=O)N[C@@H](CCCNC(=N)N)C(=O)N[C@@H](CCCCN)C(=O)N2)NC(=O)[C@H](CSSC[C@@H](C(=O)N[C@@H](CCCCN)C(=O)N[C@@H](Cc2ccc(O)cc2)C(=O)N[C@H](C(=O)N[C@@H](Cc2ccccc2)C(N)=O)C(C)C)NC(=O)[C@H](Cc2c[nH]c4ccccc24)NC(=O)[C@H](CCCCN)NC(=O)[C@H](Cc2c[nH]cn2)NC(=O)[C@H]([C@@H](C)O)NC(=O)[C@H](CCCNC(=N)N)NC(=O)[C@H](CO)NC3=O)NC(=O)[C@H](CCCCN)NC(=O)[C@H](CC(=O)O)NC(=O)[C@H](CC(N)=O)NC(=O)[C@H](CC(=O)O)NC(=O)[C@@H]2CCCN2C1=O [SEQ ID NO: 283] (H-DCLGFPRKCIPDNDKCCRPNLVCSRTHKWCKYVF-NH2; disulfide 2-17, 9-23, 16-30) | – | 10000 | – | – | 42 | 760 | – | – | – | 10000 | – | 790 |
| CC[C@H](C)[C@@H]1NC(=O)[C@@H]2CSSC[C@@H]3NC(=O)[C@H](C(C)C)NC(=O)[C@H](CC(C)C)NC(=O)[C@H](CC(N)=O)NC(=O)[C@@H]4CCCN4C(=O)[C@H](CCCNC(=N)N)NC(=O)[C@H](CSSC[C@H](NC(=O)[C@@H](N)CC(=O)O)C(=O)N[C@@H](C)C(=O)NCC(=O)N[C@@H](Cc4ccccc4)C(=O)N[C@@H](CCSC)C(=O)N[C@@H](CCCNC(=N)N)C(=O)N[C@@H](CCCCN)C(=O)N2)NC(=O)[C@H](CSSC[C@@H](C(=O)N[C@@H](CCCCN)C(=O)N[C@@H](Cc2ccc(O)cc2)C(=O)N[C@H](C(=O)N[C@@H](Cc2ccccc2)C(N)=O)C(C)C)NC(=O)[C@H](Cc2c[nH]c4ccccc24)NC(=O)[C@H](CCCCN)NC(=O)[C@H](Cc2cnc[nH]2)NC(=O)[C@H]([C@@H](C)O)NC(=O)[C@H](CCCNC(=N)N)NC(=O)[C@H](CO)NC3=O)NC(=O)[C@H](CCCCN)NC(=O)[C@H](CC(=O)O)NC(=O)[C@H](CC(N)=O)NC(=O)[C@H](CC(=O)O)NC(=O)[C@@H]2CCCN2C1=O [SEQ ID NO: 21] (H-DCAGFMRKCIPDNDKCCRPNLVCSRTHKWCKYVF-NH2; disulfide 2-17, 9-23, 16-30) | – | > 10000 | 19000 | – | 12 | 100 | – | – | – | – | – | 510 |
| CC[C@H](C)[C@@H]1NC(=O)[C@@H]2CSSC[C@@H]3NC(=O)[C@H](C(C)C)NC(=O)[C@H](CC(C)C)NC(=O)[C@H](CC(N)=O)NC(=O)[C@@H]4CCCN4C(=O)[C@H](CCCNC(=N)N)NC(=O)[C@H](CSSC[C@H](NC(=O)[C@@H](N)CC(=O)O)C(=O)N[C@@H](CC(C)C)C(=O)NCC(=O)N[C@@H](Cc4ccccc4)C(=O)N[C@@H](Cc4ccccn4)C(=O)N[C@@H](CCCNC(=N)N)C(=O)N[C@@H](CCCCN)C(=O)N2)NC(=O)[C@H](CSSC[C@@H](C(=O)N[C@@H](CCCCN)C(=O)N[C@@H](Cc2ccc(O)cc2)C(=O)N[C@H](C(=O)N[C@@H](Cc2ccccc2)C(N)=O)C(C)C)NC(=O)[C@H](Cc2c[nH]c4ccccc24)NC(=O)[C@H](CCCCN)NC(=O)[C@H](Cc2c[nH]cn2)NC(=O)[C@H]([C@@H](C)O)NC(=O)[C@H](CCCNC(=N)N)NC(=O)[C@H](CO)NC3=O)NC(=O)[C@H](CCCCN)NC(=O)[C@H](CC(=O)O)NC(=O)[C@H](CC(N)=O)NC(=O)[C@H](CC(=O)O)NC(=O)[C@@H]2CCCN2C1=O [SEQ ID NO: 294] | – | 10000 | – | – | 42 | 90 | – | – | – | 9110 | – | 370 |
